Bounds are passed on as bounds.

The first assay deals with Utrophin A promoter linked to a luciferase reporter gene. In words: Luciferase reporter assay (murine H2K cells), H2K/mdx/Utro A reporter cell line. To be noted: 48 h; test compound concentration 0.3 μM; mdx mouse H2K Utrophin A reporter cells; read-out: Activity (luciferase level relative to control). Type of assay: cell-based. Here is the method: Luciferase Reporter Assay (Murine H2K Cells)
The cell line used for the screen is an immortalized mdx mouse H2K cell line that has been stably transfected with a plasmid containing ≈5 kb fragment of the Utrophin A promoter including the first untranslated exon linked to a luciferase reporter gene.
Under conditions of low temperature and interferon containing media, the cells remain as myoblasts. These are plated into 96 well plates and cultured in the presence of compound for three days. The level of luciferase is then determined by cell lysis and reading of the light output from the expressed luciferase gene utilising a plate luminometer.
Luciferase Assay for 96 Well Plates
The H2K/mdx/Utro A reporter cell line cells were plated out into 96 well plates (Falcon 353296, white opaque) at a density of approximately 5000 cells/well in 190 μl normal growth medium. The plates were then incubated at 33° C. in the presence of 10% CO2 for 24 hrs.
Compounds were dosed by adding 10 μl of diluted compound to each well giving a final concentration of 10 μM (where a different final concentration was required, the amount of compound solution added was amended accordingly). The plates were then incubated for a further 48 hrs. Cells were then lysed in situ following the manufacture's protocols (Promega Steady-Glo Luciferase Assay System(E2520). Then counted for 10 seconds using a plate luminometer (Victor1420).
Compounds for screening were stored at −20° C. as 10 mM stocks in 100% DMSO until required.
Biological activity as assessed using the luciferase reporter assay in murine H2K cells, and the results are shown in Table 1, which also lists the concentration of the test compound solution in μM.
Background: In a reporter assay the amount or activity of a reporter protein is the signal.
Regarding `CS(=O)(=O)c1ccc(Cn2nc(CNc3ccc4c(c3)OCO4)c3ccccc32)cc1` [Compound 90, N-((1-(4-(methylsulfonyl)benzyl)-1H-indazol-3-yl)methyl)benzo[d][1,3]dioxol-5-amine], the activity at 0.3 µM was under 200%.

Staying with this assay, now noted: 48 h; test compound concentration 3 μM; mdx mouse H2K Utrophin A reporter cells; read-out: Activity (luciferase level relative to control).
As to `CS(=O)(=O)c1ccc(Cn2nc(C(=O)Nc3ccc(O)cc3)c3ccccc32)cc1` [Compound 88, N-(4-hydroxyphenyl)-1-(4-(methylsulfonyl)benzyl)-1H-indazole-3-carboxamide], the activity at 3 µM was under 200%.

The assay is the same for the next values; noted with them: 48 h; test compound concentration 10 μM; mdx mouse H2K Utrophin A reporter cells; read-out: Activity (luciferase level relative to control).
For `O=C(Nc1ccc2c(c1)OCO2)c1nn(CCOc2ccccc2)c2ccccc12` [Compound 58, N-(benzo[d][1,3]dioxol-5-yl)-1-(2-phenoxyethyl)-1H-indazole-3-carboxamide], the activity at 10 µM lay within 201 to 300%.

Turning to `Cc1ccc(NC(=O)Nc2nn(Cc3ccc(C(F)(F)F)cc3)c3ccccc23)cc1` [Compound 59, 1-p-tolyl-3-(1-(4-(trifluoromethyl)benzyl)-1H-indazol-3-yl)urea], the activity at 10 µM was under 200%.

Consider `CC(C)c1ccc(NC(=O)c2nn(CCOc3ccc(F)cc3)c3ccccc23)cc1` [Compound 60, 1-(2-(4-fluorophenoxy)ethyl)-N-(4-isopropylphenyl)-1H-indazole-3-carboxamide], for which the activity at 10 µM is under 200%.

Consider `O=C(Nc1ccc(OC(F)(F)F)cc1)c1nn(Cc2ccc(C(=O)N3CCOCC3)cc2)c2ccccc12` [Compound 61, 1-(4-(morpholine-4-carbonyl)benzyl)-N-(4-(trifluoromethoxy)phenyl)-1H-indazole-3-carboxamide], for which the activity at 10 µM is over 401%.

Consider `CC(C)c1ccc(NC(=O)c2nn(Cc3ccc(S(C)(=O)=O)cc3)c3ccccc23)cc1` [Compound 62, N-(4-isopropylphenyl)-1-(4-(methylsulfonyl)benzyl)-1H-indazole-3-carboxamide], for which the activity at 10 µM is 301 to 400%.

With `O=C(Nc1ccc2c(c1)OCO2)c1nn(Cc2ccc(C(=O)N3CCOCC3)cc2)c2ccccc12` [Compound 63, N-(benzo[d][1,3]dioxol-5-yl)-1-(4-(morpholine-4-carbonyl)benzyl)-1H-indazole-3-carboxamide], the activity at 10 µM is over 401%.

As to `NC(=O)c1ccc(NC(=O)c2nn(Cc3ccc(S(=O)(=O)N4CCOCC4)cc3)c3ccccc23)cc1` [Compound 64, N-(4-carbamoylphenyl)-1-(4-(morpholinosulfonyl)benzyl)-1H-indazole-3-carboxamide], the activity at 10 µM was under 200%.

As to `COc1ccc(NC(=O)c2nn(Cc3ccc(C(C)(C)C)cc3)c3ccccc23)cc1` [Compound 65, 1-(4-tert-butylbenzyl)-N-(4-methoxyphenyl)-1H-indazole-3-carboxamide], the activity at 10 µM is 201 to 300%.

Take `C#CCN(C)S(=O)(=O)c1ccc(Cn2nc(C(=O)Nc3ccc(C(C)C)cc3)c3ccccc32)cc1` [Compound 66, N-(4-isopropylphenyl)-1-(4-(N-methyl-N-(prop-2-ynyl)sulfamoyl)benzyl)-1H-indazole-3-carboxamide]: the activity at 10 µM is under 200%.

For the compound `O=C(Nc1ccccn1)c1nn(CCOc2ccc(F)cc2)c2ccccc12` [Compound 67, 1-(2-(4-fluorophenoxy)ethyl)-N-(pyridin-2-yl)-1H-indazole-3-carboxamide], the activity at 10 µM was under 200%.

Regarding `COc1cccc(OCc2ccc(Cn3nc(NC(=O)Nc4ccccc4OC(F)(F)F)c4ccccc43)cc2)c1` [Compound 68, 1-(1-(4-((3-methoxyphenoxy)methyl)benzyl)-1H-indazol-3-yl)-3-(2-(trifluoromethoxy)phenyl)urea], the activity at 10 µM was under 200%.

Take `O=C(Nc1ccc(N2CCCCC2)cc1)c1nn(Cc2ccc(-c3ccccc3)cc2)c2ccccc12` [Compound 69, 1-(biphenyl-4-ylmethyl)-N-(4-(piperidin-1-yl)phenyl)-1H-indazole-3-carboxamide]: the activity at 10 µM is under 200%.

As to `CC(C)(C)c1ccc(Cn2nc(C(=O)Nc3ccc(OC(F)(F)F)cc3)c3ccccc32)cc1` [Compound 70, 1-(4-tert-butylbenzyl)-N-(4-(trifluoromethoxy)phenyl)-1H-indazole-3-carboxamide], the activity at 10 µM was under 200%.

For `O=C(Nc1nccs1)c1nn(CCOc2ccccc2)c2ccccc12` [Compound 71, 1-(2-phenoxyethyl)-N-(thiazol-2-yl)-1H-indazole-3-carboxamide], the activity at 10 µM is under 200%.

For the compound `O=C(NCC1CCCO1)c1nn(Cc2ccc(C(=O)N3CCOCC3)cc2)c2ccccc12` (stereo not shown) [Compound 72, 1-(4-(morpholine-4-carbonyl)benzyl)-N-((tetrahydrofuran-2-yl)methyl)-1H-indazole-3-carboxamide], the activity at 10 µM is under 200%.

Regarding `COc1ccc(CCNC(=O)Nc2nn(Cc3ccc(C(F)(F)F)cc3)c3ccccc23)cc1OC` [Compound 73, 1-(3,4-dimethoxyphenethyl)-3-(1-(4-(trifluoromethyl)benzyl)-1H-indazol-3-yl)urea], the activity at 10 µM is under 200%.

In the case of `COc1ccc(NC(=O)c2nn(Cc3ccc(-c4ccccc4)cc3)c3ccccc23)cc1` [Compound 74, 1-(biphenyl-4-ylmethyl)-N-(4-methoxyphenyl)-1H-indazole-3-carboxamide], the activity at 10 µM was under 200%.

With `O=C(Nc1ccc(N2CCCCC2)cc1)c1nn(CCOc2ccccc2)c2ccccc12` [Compound 75, 1-(2-phenoxyethyl)-N-(4-(piperidin-1-yl)phenyl)-1H-indazole-3-carboxamide], the activity at 10 µM was 201 to 300%.

`C#CCN(C)S(=O)(=O)c1ccc(Cn2nc(C(=O)Nc3ccc(C(N)=O)cc3)c3ccccc32)cc1` [Compound 76, N-(4-carbamoylphenyl)-1-(4-(N-methyl-N-(prop-2-ynyl)sulfamoyl)benzyl)-1H-indazole-3-carboxamide]: the activity at 10 µM is under 200%.

In the case of `CS(=O)(=O)c1ccc(Cn2nc(C(=O)Nc3ccccn3)c3ccccc32)cc1` [Compound 77, 1-(4-(methylsulfonyl)benzyl)-N-(pyridin-2-yl)-1H-indazole-3-carboxamide], the activity at 10 µM is under 200%.

Turning to `COc1ccccc1CNC(=O)Nc1nn(Cc2cc3c(cc2Cl)OCO3)c2ccccc12` [Compound 78, 1-(1-((6-chlorobenzo[d][1,3]dioxol-5-yl)methyl)-1H-indazol-3-yl)-3-(2-methoxybenzyl)urea], the activity at 10 µM is under 200%.

For `CC(C)(C)c1ccc(Cn2nc(C(=O)Nc3ccc(N4CCCCC4)cc3)c3ccccc32)cc1` [Compound 79, 1-(4-tert-butylbenzyl)-N-(4-(piperidin-1-yl)phenyl)-1H-indazole-3-carboxamide], the activity at 10 µM was under 200%.

Take `COc1ccc(CCNC(=O)Nc2nn(Cc3ccc(COc4cccc(OC)c4)cc3)c3ccccc23)cc1` [Compound 80, 1-(4-methoxyphenethyl)-3-(1-(4-((3-methoxyphenoxy)methyl)benzyl)-1H-indazol-3-yl)urea]: the activity at 10 µM was under 200%.

`CC(C)(C)c1ccc(NC(=O)c2nn(Cc3ccc(S(C)(=O)=O)cc3)c3ccccc23)cc1` [Compound 81, N-(4-tert-butylphenyl)-1-(4-(methylsulfonyl)benzyl)-1H-indazole-3-carboxamide]: the activity at 10 µM was under 200%.

For the compound `COc1ccc(NC(=O)c2nn(Cc3ccc(S(C)(=O)=O)cc3)c3ccccc23)cc1OC` [Compound 82, N-(3,4-dimethoxyphenyl)-1-(4-(methylsulfonyl)benzyl)-1H-indazole-3-carboxamide], the activity at 10 µM was under 200%.

As for `CS(=O)(=O)c1ccc(Cn2nc(C(=O)Nc3ccccc3)c3ccccc32)cc1` [Compound 83, N-phenyl-1-(4-(methylsulfonyl)benzyl)-1H-indazole-3-carboxamide], the activity at 10 µM was under 200%.

Regarding `CCc1ccc(NC(=O)c2nn(Cc3ccc(S(C)(=O)=O)cc3)c3ccccc23)cc1` [Compound 84, N-(4-ethylphenyl)-1-(4-(methylsulfonyl)benzyl)-1H-indazole-3-carboxamide], the activity at 10 µM lay within 301 to 400%.

Regarding `CC(C)c1ccccc1NC(=O)c1nn(Cc2ccc(S(C)(=O)=O)cc2)c2ccccc12` [Compound 85, N-(2-isopropylphenyl)-1-(4-(methylsulfonyl)benzyl)-1H-indazole-3-carboxamide], the activity at 10 µM is under 200%.

Consider `COc1cccc(NC(=O)c2nn(Cc3ccc(S(C)(=O)=O)cc3)c3ccccc23)c1` [Compound 86, N-(3-methoxyphenyl)-1-(4-(methylsulfonyl)benzyl)-1H-indazole-3-carboxamide], for which the activity at 10 µM was under 200%.

As for `O=C(Nc1ccc2c(c1)OCO2)c1nn(Cc2ccccc2)c2ccccc12` [Compound 87, N-(benzo[d][1,3]dioxol-5-yl)-1-benzyl-1H-indazole-3-carboxamide], the activity at 10 µM is under 200%.

For `CS(=O)(=O)c1ccc(Cn2nc(C(=O)Nc3ccc(Cl)cc3)c3ccccc32)cc1` [Compound 89, N-(4-chlorophenyl)-1-(4-(methylsulfonyl)benzyl)-1H-indazole-3-carboxamide], the activity at 10 µM lay within 201 to 300%.

Take `CC(C)c1ccc(Cn2nc(C(=O)Nc3ccc(S(C)(=O)=O)cc3)c3ccccc32)cc1` [Compound 91, 1-(4-isopropylbenzyl)-N-(4-(methylsulfonyl)phenyl)-1H-indazole-3-carboxamide]: the activity at 10 µM is under 200%.

Source of the values: patent publication US20100305120A1, “COMPOUNDS FOR TREATING MUSCULAR DYSTROPHY” (BIOMARIN IGA LIMITED, priority 2008, published 2010).
